The source of these data is article PMC11258189, “Estrogenic, androgenic, and genotoxic activities of zearalenone and deoxynivalenol in in vitro bioassays including exogenous metabolic activation” (Mycotoxin Research, 2024).

In data set [1] the test system is estrogen receptor (ER).
Data set [2] addresses T1, human androgen receptor (Homo sapiens, UniProt P10275).
T1 construct: host or cells: Chinese hamster ovary (CHO) cells, AR-EcoScreen GR KO M1, stably transfected, glucocorticoid receptor knocked out
T1 sequence (P10275 1-920): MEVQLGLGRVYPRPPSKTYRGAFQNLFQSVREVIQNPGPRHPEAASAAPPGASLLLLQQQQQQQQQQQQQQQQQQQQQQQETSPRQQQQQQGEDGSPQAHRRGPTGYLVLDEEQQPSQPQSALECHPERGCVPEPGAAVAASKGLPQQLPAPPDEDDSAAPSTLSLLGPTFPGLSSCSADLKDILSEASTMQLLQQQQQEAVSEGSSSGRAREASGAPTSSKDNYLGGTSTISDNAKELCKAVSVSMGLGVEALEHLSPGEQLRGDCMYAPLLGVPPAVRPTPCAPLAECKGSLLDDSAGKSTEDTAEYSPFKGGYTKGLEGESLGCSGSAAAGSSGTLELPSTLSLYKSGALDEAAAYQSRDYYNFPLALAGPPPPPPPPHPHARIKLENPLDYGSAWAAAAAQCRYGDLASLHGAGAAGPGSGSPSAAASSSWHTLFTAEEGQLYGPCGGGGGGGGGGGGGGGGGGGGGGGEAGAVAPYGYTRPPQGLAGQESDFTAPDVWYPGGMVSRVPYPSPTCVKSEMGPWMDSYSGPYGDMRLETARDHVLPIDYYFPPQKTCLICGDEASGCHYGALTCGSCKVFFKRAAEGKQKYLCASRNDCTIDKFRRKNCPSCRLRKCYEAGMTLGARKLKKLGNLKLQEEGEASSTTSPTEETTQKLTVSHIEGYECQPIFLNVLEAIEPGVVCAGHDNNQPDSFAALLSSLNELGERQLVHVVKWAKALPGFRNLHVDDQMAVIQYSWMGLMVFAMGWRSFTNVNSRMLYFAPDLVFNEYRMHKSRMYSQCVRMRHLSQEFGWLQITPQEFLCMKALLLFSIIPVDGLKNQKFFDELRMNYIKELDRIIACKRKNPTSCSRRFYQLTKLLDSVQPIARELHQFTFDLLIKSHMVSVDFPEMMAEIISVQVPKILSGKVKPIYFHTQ
The class given is cell-based.

In data set [3] the test system is estrogen receptor (ER). It is filed as cell-based, human.
The target of data set [4] is T1, human androgen receptor. It is filed as cell-based. The source holds these as a separate data set.
Details of data set [5]: method as in Drzymala et al. [2015]. To be noted: ref Drzymala et al. [2015]; cited from earlier work.
A further data set deals with AR. Further details: method as in Molina-Molina et al. [2014]. To be noted: ref Molina-Molina et al. [2014], cited from earlier work; for AR antagonistic effect IC50: androgen-sensitive PALM cells.
On the set-up of data set [6]: method as in Drzymala et al. [2014]. To be noted: rat liver microsomes, presence of NADPH, after 60 min; ref Drzymala et al. [2014]; cited from earlier work. In general terms: Liver microsomes are a subcellular fraction often used to study metabolism.
The mark [7] stands for this setting: DON compounds, S9 + PHI + PHII cofactors.
[8] abbreviates: DON compounds, S9 + PHII cofactors.
Setting [9] is: without exogenous MAS, initial concentration-range finding trials, 24 h.
The mark [10] stands for this setting: DON compounds, S9 alone, [95% CI].
The mark [11] stands for this setting: DON compounds, no MAS, [95% CI].
The mark [12] stands for this setting: DON compounds, S9 + PHI + PHII cofactors, [95% CI].
[13] abbreviates: DON compounds, S9 + PHII cofactors, [95% CI].
Where [14] appears, read: ZEN compounds, S9 + PHI + PHII cofactors, [95% CI].
[15] abbreviates: ZEN compounds, S9 + PHI cofactors, [95% CI].
[16] abbreviates: ZEN compounds, S9 alone, [95% CI].
The mark [17] stands for this setting: ZEN compounds, no MAS, [95% CI].
The mark [18] stands for this setting: ZEN compounds, no MAS (S9 −, PHI −, PHII −), [95% CI].

SMILES strings stand for the structures. Read-outs that look alike come from different tables or passages of the source.

For `C[C@]12CC[C@@H]3c4ccc(O)cc4CC[C@H]3[C@@H]1CC[C@@H]2O` [E2, 17β-estradiol, reference compound], in the data set with estrogen receptor (ER) [1], the “ER agonistic activity after treatment of cells with only S9” value is “reduction of ER agonistic activity”.

On to `CC(=O)OC[C@]12[C@H](O)C(=O)C(C)=C[C@H]1O[C@@H]1[C@H](O)C[C@@]2(C)[C@]12CO2` [15-Ac-DON, 15-acetyl deoxynivalenol], for which the “AR antagonism IC30” value on human androgen receptor [2] (setting [7]) is listed as “<LOD”; at human androgen receptor [2] (setting [8]), “<LOD”; at human androgen receptor [2] (DON compounds, S9 alone) it was “<LOD”; at human androgen receptor [2] (DON compounds, no MAS) it was “<LOD”; at human androgen receptor [2] (setting [9]), “<LOD”. The “ER agonism EC10” value with estrogen receptor (ER) [1] (setting [7]), in the data set with estrogen receptor (ER) [1] (setting [8]), in the data set with estrogen receptor (ER) [1] (setting [10]), with estrogen receptor (ER) [1] (setting [11]) and with estrogen receptor (ER) [1] (setting [9]) was “<LOD” each time. Moreover, the “ER antagonism IC30” value in the data set on estrogen receptor (ER) [3] (setting [12]) is 0.48 [0.30,0.72] µM; in the data set with estrogen receptor (ER) [3] (setting [13]), 0.24 [0.18,0.32] µM; in the data set with estrogen receptor (ER) [3] (setting [10]), 1.11 [0.81,1.38] µM; in the data set on estrogen receptor (ER) [3] (setting [11]) it was 1.09 [0.98, 1.20] µM; in the data set with estrogen receptor (ER) [3] (setting [9]), 0.99 µM. In addition, the “AR agonism EC10” value is 0.52 [0.45,0.62] µM on human androgen receptor [4] (setting [12]); 0.50 [0.45,0.56] µM at human androgen receptor [4] (setting [13]); 0.70 [0.62,0.76] µM at human androgen receptor [4] (setting [10]); 0.81 [0.74,0.87] µM on human androgen receptor [4] (setting [11]); 0.77 µM on human androgen receptor [4] (setting [9]).

As for `CC1CCCC(=O)CCC/C=C/c2cc(O)c(O)c(O)c2C(=O)O1` (stereo not shown) [15-OH-ZEN], the “Estrogenic potency compared to ZEN, set at 1” value in data set [5] is listed as 0.02.

`CC(=O)O[C@@H]1C[C@]2(C)[C@@]3(CO)[C@H](O)C(=O)C(C)=C[C@H]3O[C@H]1[C@@]21CO1` [3-Ac-DON, 3-acetyl deoxynivalenol]: the “AR antagonism IC30” value on human androgen receptor [2] (setting [7]) is reported as “<LOD”; at human androgen receptor [2] (setting [8]), “<LOD”; at human androgen receptor [2] (DON compounds, S9 alone) it was “<LOD”; at human androgen receptor [2] (DON compounds, no MAS) it was “<LOD”; on human androgen receptor [2] (setting [9]), “<LOD”. Besides, in the data set on estrogen receptor (ER) [1], the “Estrogenicity relative to α-ZEL (times lower)” value is listed as ~10^5 times. The “ER agonism EC10” value with estrogen receptor (ER) [1] (setting [7]) is “<LOD”; in the data set on estrogen receptor (ER) [1] (setting [8]) it was “<LOD”; in the data set with estrogen receptor (ER) [1] (setting [10]) it was 0.53 [0.49,0.59] µM; in the data set with estrogen receptor (ER) [1] (setting [11]), 0.45 [0.41,0.49] µM; with estrogen receptor (ER) [1] (setting [9]), 310,000 pM. Moreover, the “ER agonism, response as % of the maximum response of E2 in the assay” value in the data set with estrogen receptor (ER) [1] (without MAS) amounted to 30%. For the same molecule, the “ER bioassay EC10 (estrogenic)” value in the data set on estrogen receptor (ER) [1] (without MAS, abstract) worked out at 310 nM. In addition, the “ER antagonism IC30” value in the data set on estrogen receptor (ER) [3] (setting [12]), in the data set with estrogen receptor (ER) [3] (setting [13]), with estrogen receptor (ER) [3] (setting [10]), in the data set on estrogen receptor (ER) [3] (setting [11]) and in the data set with estrogen receptor (ER) [3] (setting [9]) was “<LOD” in each case. In addition, the “AR agonism EC10” value at human androgen receptor [4] (setting [12]) was 0.91 [0.65,1.35] µM; on human androgen receptor [4] (setting [13]), 0.63 [0.52,0.78] µM; at human androgen receptor [4] (setting [10]) it was 1.07 [0.91,1.23] µM; on human androgen receptor [4] (setting [11]) it was 1.11 [0.95,1.26] µM; on human androgen receptor [4] (setting [9]), 1.31 µM.

As for `C[C@H]1CCCC(=O)CCC/C=C/c2cc(O)cc(O)c2C(=O)O1` [ZEN, zearalenone], the “AR antagonism IC30” value was 18.0 [13.8,23.4] µM at human androgen receptor [2] (setting [14]); 7.33 [6.31,8.13] µM at human androgen receptor [2] (setting [15]); 2.14 [1.82,2.45] µM on human androgen receptor [2] (setting [16]); 2.37 [1.95,2.75] µM on human androgen receptor [2] (setting [17]); 3.30 µM at human androgen receptor [2] (setting [9]). For the same molecule, in the data set on TK6 cells (5 h exposure, alone, with S9 alone or S9 with cofactors, ZEN 6.25 and 12.50 µM, DON 0.78 and 1.56 µM), the “Micronuclei formation (% MN) versus vehicle controls” value is “neither ZEN nor DON alone or with the S9 alone or with cofactors had any statistically significant effect on % MN”. Also, the “Micronuclei formation (% MN) versus vehicle control” value in the data set with TK6 cells (24 h continuous exposure, without MAS, non-cytotoxic test concentrations) is reported as “statistically significant increase in % MN”. For the same molecule, in the data set on TK6 cells (24 h continuous exposure, without MAS, p-value of 0.0007), the “Test concentration with statistically significant increase in % MN (highest non-cytotoxic test concentration)” value is recorded as 12.5 µM. Moreover, the “ER agonism EC10” value in the data set on estrogen receptor (ER) [1] (setting [14]) is 6470 pM; in the data set on estrogen receptor (ER) [1] (setting [15]) it was 984 [740,1 279] pM; in the data set on estrogen receptor (ER) [1] (setting [16]), 63.3 [56.2,97.2] pM; with estrogen receptor (ER) [1] (setting [18]) it was 46.5 [29.5,72.4] pM; with estrogen receptor (ER) [1] (setting [9]) it was 30 to 40 pM; in the data set with estrogen receptor (ER) [1] (without exogenous MAS, initial concentration-range finding trials, 24 h, listed as Zearalenone (ZEN)), 34.07 pM. In addition, the “ER agonism EC10 value range converted to a concentration range in a water sample” value with estrogen receptor (ER) [1] (converted from 30–40 pM) lay within 0.01 to 0.012 ng/mL. Also, in the data set with estrogen receptor (ER) [1] (water sample enriched 50 times), the “ER agonism EC10 converted to concentration in a water sample enriched 50 times” value is reported as “approximately 0.2 ng/L”. The “ER antagonism IC30” value in the data set with estrogen receptor (ER) [3] (setting [15]) was 10.3 [8.71,11.8] µM; with estrogen receptor (ER) [3] (setting [16]), 3.41 [2.40,4.68] µM; in the data set with estrogen receptor (ER) [3] (setting [17]) it was 2.92 [2.09,3.89] µM; with estrogen receptor (ER) [3] (setting [9]), 2.85 µM. In addition, the “AR agonism EC10” value on human androgen receptor [4] (ZEN compounds, S9 + PHI + PHII cofactors) was “<LOD”; at human androgen receptor [4] (ZEN compounds, S9 + PHI cofactors), “<LOD”; on human androgen receptor [4] (ZEN compounds, S9 alone), “<LOD”; at human androgen receptor [4] (ZEN compounds, no MAS), “<LOD”; on human androgen receptor [4] (setting [9]), “<LOD”. Moreover, the Androgenic activities entry in the data set with AR (PALM cells, 40 h of exposure, concentrations up to 10 µM) is given as “no androgenic activities were detected”. Further, the “AR antagonistic effect IC50” value in the data set on AR was “micromolar range”. Moreover, the “Decrease of substrate concentration to (% remaining)” value in data set [6] is recorded as “approximately 40%”.

As to `C[C@H]1CCC[C@H](O)CCC/C=C/c2cc(O)cc(O)c2C(=O)O1` [α-ZEL, α-Zearalenol], the “Estrogenic potency relative to ZEN (times more potent)” value in the data set with estrogen receptor (ER) [1] is ~10 times. Further, the “ER agonism EC10” value was 49.3 [30.2,75.9] pM in the data set on estrogen receptor (ER) [1] (setting [15]), 4.24 [2.82,6.31] pM in the data set with estrogen receptor (ER) [1] (setting [16]), 3.70 [2.51,5.37] pM in the data set on estrogen receptor (ER) [1] (setting [18]) and 3.59 pM in the data set with estrogen receptor (ER) [1] (setting [9]). The “ER antagonism IC30” value in the data set on estrogen receptor (ER) [3] (setting [14]) is 5.10 [2.88,8.13] µM; in the data set on estrogen receptor (ER) [3] (setting [15]), 2.42 [1.35,3.63] µM; in the data set with estrogen receptor (ER) [3] (setting [16]) it was 1.75 [0.69,3.02] µM; in the data set on estrogen receptor (ER) [3] (setting [17]), 1.03 [0.33,1.78] µM; in the data set with estrogen receptor (ER) [3] (setting [9]) it was 1.39 µM. In addition, the “AR agonism EC10” value on human androgen receptor [4] is given as “<LOD”. Moreover, the “AR antagonistic effect IC50” value in the data set on AR is “micromolar range”.
